Laboratory results: ChEMBL document CHEMBL1139555, “Discovery of potent and selective phenylalanine based dipeptidyl peptidase IV inhibitors” (Bioorg Med Chem Lett, 2005)

What was measured:
[1] = Plasma half-life of compound was determined in rat; type: ADME, cell-free
[2] = target: Dipeptidyl peptidase 4 (Homo sapiens, UniProt P27487)
[3] = target: Dipeptidyl peptidase 8 (Homo sapiens, UniProt Q6V1X1)
[4] = target: Dipeptidyl peptidase 9 (Homo sapiens, UniProt Q86TI2)
[5] = target: Dipeptidyl peptidase 2 (Homo sapiens, UniProt Q9UHL4)
[6] = Oral bioavailability in rat; type: ADME, organism-based; conditions: in vivo
[7] = Plasma cearance of compound was determined in rat; type: ADME, organism-based; conditions: read-out: Clp

Dipeptidyl peptidase 9, sequence (Q86TI2 whole entry): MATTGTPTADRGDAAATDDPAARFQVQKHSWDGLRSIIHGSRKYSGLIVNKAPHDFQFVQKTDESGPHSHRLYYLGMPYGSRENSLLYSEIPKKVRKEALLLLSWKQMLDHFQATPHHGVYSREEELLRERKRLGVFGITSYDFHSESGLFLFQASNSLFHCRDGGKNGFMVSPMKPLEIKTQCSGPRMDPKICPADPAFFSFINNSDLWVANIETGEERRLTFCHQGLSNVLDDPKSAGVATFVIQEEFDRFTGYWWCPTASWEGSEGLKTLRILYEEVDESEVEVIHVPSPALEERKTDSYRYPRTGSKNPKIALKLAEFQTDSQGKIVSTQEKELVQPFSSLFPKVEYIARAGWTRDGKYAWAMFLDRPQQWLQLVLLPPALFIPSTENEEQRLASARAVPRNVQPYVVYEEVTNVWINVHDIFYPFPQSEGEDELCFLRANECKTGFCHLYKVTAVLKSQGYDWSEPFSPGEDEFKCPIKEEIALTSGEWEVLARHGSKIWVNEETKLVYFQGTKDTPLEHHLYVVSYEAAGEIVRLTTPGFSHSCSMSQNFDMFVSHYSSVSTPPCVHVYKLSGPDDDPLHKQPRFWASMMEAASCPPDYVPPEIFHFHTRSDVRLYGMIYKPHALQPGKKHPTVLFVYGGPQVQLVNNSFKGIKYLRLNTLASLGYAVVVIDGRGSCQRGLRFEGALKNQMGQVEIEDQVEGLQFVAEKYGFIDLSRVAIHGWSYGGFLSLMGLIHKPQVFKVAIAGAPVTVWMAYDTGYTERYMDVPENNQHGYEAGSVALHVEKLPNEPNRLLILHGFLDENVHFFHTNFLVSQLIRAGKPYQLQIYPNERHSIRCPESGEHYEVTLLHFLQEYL
Dipeptidyl peptidase 8, sequence (Q6V1X1 whole entry): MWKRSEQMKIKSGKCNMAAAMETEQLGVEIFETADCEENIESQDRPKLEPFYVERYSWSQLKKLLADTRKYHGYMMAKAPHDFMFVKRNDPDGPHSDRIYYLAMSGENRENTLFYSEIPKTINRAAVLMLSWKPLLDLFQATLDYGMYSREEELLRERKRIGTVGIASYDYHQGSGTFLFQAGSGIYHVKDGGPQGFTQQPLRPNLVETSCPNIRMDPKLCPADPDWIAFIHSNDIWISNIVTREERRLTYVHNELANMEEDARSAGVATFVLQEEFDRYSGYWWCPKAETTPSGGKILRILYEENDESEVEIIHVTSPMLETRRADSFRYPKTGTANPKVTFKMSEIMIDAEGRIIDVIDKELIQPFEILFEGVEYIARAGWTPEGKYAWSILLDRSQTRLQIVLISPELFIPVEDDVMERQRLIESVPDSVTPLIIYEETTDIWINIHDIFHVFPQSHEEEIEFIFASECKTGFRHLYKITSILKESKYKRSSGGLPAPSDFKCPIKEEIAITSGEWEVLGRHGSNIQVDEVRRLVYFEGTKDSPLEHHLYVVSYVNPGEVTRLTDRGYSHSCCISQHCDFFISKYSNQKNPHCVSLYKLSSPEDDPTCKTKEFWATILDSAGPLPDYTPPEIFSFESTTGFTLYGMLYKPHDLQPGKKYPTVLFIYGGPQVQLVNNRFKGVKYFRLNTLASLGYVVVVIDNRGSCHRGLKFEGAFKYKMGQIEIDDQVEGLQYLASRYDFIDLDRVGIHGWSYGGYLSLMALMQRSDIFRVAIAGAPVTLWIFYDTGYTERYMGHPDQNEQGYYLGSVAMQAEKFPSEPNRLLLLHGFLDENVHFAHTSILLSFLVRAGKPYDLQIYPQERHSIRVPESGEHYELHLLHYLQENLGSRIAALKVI
Dipeptidyl peptidase 4, sequence (P27487 whole entry): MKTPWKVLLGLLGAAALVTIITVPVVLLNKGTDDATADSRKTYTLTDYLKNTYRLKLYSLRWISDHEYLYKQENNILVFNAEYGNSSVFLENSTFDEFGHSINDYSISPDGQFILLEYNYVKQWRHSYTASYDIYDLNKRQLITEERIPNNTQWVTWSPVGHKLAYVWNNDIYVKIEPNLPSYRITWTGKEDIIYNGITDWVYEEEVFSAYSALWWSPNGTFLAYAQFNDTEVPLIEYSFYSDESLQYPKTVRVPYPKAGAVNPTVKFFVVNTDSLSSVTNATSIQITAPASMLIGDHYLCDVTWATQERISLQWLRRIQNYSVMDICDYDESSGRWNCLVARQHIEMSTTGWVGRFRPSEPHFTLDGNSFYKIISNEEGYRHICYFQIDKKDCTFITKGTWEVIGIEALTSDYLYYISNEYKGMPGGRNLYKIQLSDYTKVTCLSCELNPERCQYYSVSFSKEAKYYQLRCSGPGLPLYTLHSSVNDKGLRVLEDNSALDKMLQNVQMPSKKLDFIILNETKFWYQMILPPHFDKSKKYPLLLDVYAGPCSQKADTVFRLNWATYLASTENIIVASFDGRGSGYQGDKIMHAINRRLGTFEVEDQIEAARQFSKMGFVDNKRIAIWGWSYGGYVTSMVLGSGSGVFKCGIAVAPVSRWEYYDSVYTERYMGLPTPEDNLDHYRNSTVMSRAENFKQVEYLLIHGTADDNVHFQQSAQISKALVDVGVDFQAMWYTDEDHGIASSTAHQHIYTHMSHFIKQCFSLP

Compound | half-life [1] [min] | IC50 [2] [nM] | IC50 [3] [µM] | IC50 [4] [µM] | IC50 [5] [nM] | bioavailability [6] [%] | clearance [7] [mL/min/kg]
C[C@@H](c1ccc(-c2ccc(F)cc2)cc1)[C@H](N)C(=O)N1CC[C@H](F)C1.O=C(O)C(F)(F)F | 132 |  |  |  |  |  | 
C[C@@H](c1ccc(Cl)cc1)[C@H](N)C(=O)N1CC[C@H](F)C1 |  | 170 | > 100 | > 100 | 5900 |  | 
C[C@@H](c1ccc(-c2cccc(-c3nc[nH]n3)c2)cc1)[C@H](N)C(=O)N1CC[C@H](F)C1 |  | 98 | > 100 | > 100 | 350 |  | 
C[C@@H](c1ccc(Br)cc1)[C@H](N)C(=O)N1CC[C@H](F)C1 |  | 250 | > 100 | > 100 | 3600 |  | 
Cc1ccc(-c2ccc([C@H](C)[C@H](N)C(=O)N3CC[C@H](F)C3)cc2)cc1 |  | 390 |  | > 100 | 1100 |  | 
C[C@@H](c1ccc(F)cc1C(F)(F)F)[C@H](N)C(=O)N1CC[C@H](F)C1 |  | 54000 | > 100 | > 100 | > 100000 |  | 
C[C@@H](c1ccc(-c2ccccc2Cl)cc1)[C@H](N)C(=O)N1CC[C@H](F)C1 |  | 86 | > 100 | > 100 | 380 |  | 
C[C@@H](c1ccc(-c2cc(F)cc(F)c2)cc1)[C@H](N)C(=O)N1CC[C@H](F)C1 |  | 240 |  |  | 2000 |  | 
C[C@@H](c1cccc(F)c1)[C@H](N)C(=O)N1CC[C@H](F)C1 |  | 3700 | > 100 | > 100 | 14000 |  | 
C[C@@H](c1ccc(-c2ccccn2)cc1)[C@H](N)C(=O)N1CC[C@H](F)C1 |  | 240 | > 100 | > 100 | 4600 |  | 
C[C@@H](c1ccc(-c2ccc(C(=O)O)cc2)cc1)[C@H](N)C(=O)N1CC[C@H](F)C1 |  | 370 | > 100 | > 100 | 8600 |  | 
C[C@@H](c1ccc(-c2ccccc2)cc1)[C@H](N)C(=O)N1CC[C@H](F)C1 |  | 120 |  | > 100 | 3000 |  | 
C[C@@H](c1ccc(-c2cccc(NS(=O)(=O)C(F)(F)F)c2)cc1)[C@H](N)C(=O)N1CC[C@H](F)C1 |  | 27 | > 100 |  | 1300 |  | 
CSc1ccc([C@H](C)[C@H](N)C(=O)N2CC[C@H](F)C2)cc1 |  | 360 |  |  | 5900 |  | 
C[C@@H](c1ccc(-c2nccs2)cc1)[C@H](N)C(=O)N1CC[C@H](F)C1 |  | 1500 | > 100 | > 100 | 720 |  | 
C[C@@H](c1ccc(-c2cccc(C(N)=O)c2)cc1)[C@H](N)C(=O)N1CC[C@H](F)C1 |  |  |  |  | 820 |  | 
CCOC(=O)c1cccc(-c2ccc([C@H](C)[C@H](N)C(=O)N3CC[C@H](F)C3)cc2)c1 |  | 75 | > 100 | > 100 | 490 |  | 
C[C@@H](c1ccc(-c2cncnc2)cc1)[C@H](N)C(=O)N1CC[C@H](F)C1 |  | 580 |  | > 100 | 10000 |  | 
C[C@@H](c1cccc(Cl)c1)[C@H](N)C(=O)N1CC[C@H](F)C1 |  | 1100 | > 100 | > 100 | 5700 |  | 

Compound | half-life [1] [min] | IC50 [2] [nM] | IC50 [3] [µM] | IC50 [4] [µM] | IC50 [5] [nM] | bioavailability [6] [%] | clearance [7] [mL/min/kg]
C[C@@H](c1ccc(-c2ccc(C(F)(F)F)cc2)cc1)[C@H](N)C(=O)N1CC[C@H](F)C1 |  | 510 |  | > 100 | 670 |  | 
C[C@@H](c1ccccc1)[C@H](N)C(=O)N1CCSC1 |  | 968 | > 100 | > 100 |  |  | 
C[C@@H](c1ccc(-c2ccc(NS(C)(=O)=O)cc2)cc1)[C@H](N)C(=O)N1CC[C@H](F)C1 |  | 710 | > 100 | > 100 | 1800 |  | 
C[C@@H](c1ccc(-c2ccc(S(C)(=O)=O)cc2)cc1)[C@H](N)C(=O)N1CC[C@H](F)C1 |  | 420 | > 100 | > 100 | 1200 |  | 
C[C@@H](c1ccc(C(F)(F)F)cc1)[C@H](N)C(=O)N1CC[C@H](F)C1 |  | 600 | > 100 | > 100 | 5200 |  | 
C[C@@H](c1ccc(-c2ccc(F)c(F)c2)cc1)[C@H](N)C(=O)N1CC[C@H](F)C1 |  | 60 |  |  | 2000 |  | 
C[C@@H](c1ccc(-c2cccnc2)cc1)[C@H](N)C(=O)N1CC[C@H](F)C1 |  | 110 | > 100 | > 100 | 4800 |  | 
C[C@@H](c1cc(F)cc(F)c1)[C@H](N)C(=O)N1CC[C@H](F)C1 |  | 3700 | > 100 | > 100 | 7800 |  | 
C[C@@H](c1ccc(-c2cccc(-c3nn[nH]n3)c2)cc1)[C@H](N)C(=O)N1CC[C@H](F)C1.O=C(O)C(F)(F)F | 18 | 6 | > 100 |  | 2900 | 3.5 | 132
COc1ccc(-c2ccc([C@H](C)[C@H](N)C(=O)N3CC[C@H](F)C3)cc2)cc1 |  | 130 |  | > 100 | 330 |  | 
C[C@@H](c1ccc(-c2cccc(-c3nnco3)c2)cc1)[C@H](N)C(=O)N1CC[C@H](F)C1 |  | 69 | > 100 | > 100 | 960 |  | 
C[C@@H](c1ccc(-c2cccc(-n3cnnn3)c2)cc1)[C@H](N)C(=O)N1CC[C@H](F)C1 |  | 140 |  | > 100 | 870 |  | 
C[C@@H](c1ccc(F)cc1Cl)[C@H](N)C(=O)N1CC[C@H](F)C1 |  | 4200 | > 100 | > 100 | 46000 |  | 
C[C@@H](c1ccc(-c2cccc(-c3n[nH]c(O)n3)c2)cc1)[C@H](N)C(=O)N1CC[C@H](F)C1 |  | 95 |  |  | 1100 |  | 
C[C@@H](c1ccc(-c2cccc(NS(C)(=O)=O)c2)cc1)[C@H](N)C(=O)N1CC[C@H](F)C1 |  | 150 | > 100 | > 100 | 250 |  | 
C[C@@H](c1ccc(-c2cc(F)ccc2F)cc1)[C@H](N)C(=O)N1CC[C@H](F)C1 |  |  | > 100 | > 100 | 1300 |  | 
C[C@@H](c1ccc(N2CCCCC2)cc1)[C@H](N)C(=O)N1CC[C@H](F)C1 |  | 7900 | > 100 | > 100 | 28000 |  | 
C[C@@H](c1ccccc1)[C@H](N)C(=O)N1CC[C@H](F)C1 |  | 1400 | > 100 | > 100 | 59000 |  | 
C[C@@H](c1ccccc1F)[C@H](N)C(=O)N1CC[C@H](F)C1 |  | 1100 | > 100 | > 100 | 19000 |  | 

Compound | half-life [1] [min] | IC50 [2] [nM] | IC50 [3] [µM] | IC50 [4] [µM] | IC50 [5] [nM] | bioavailability [6] [%] | clearance [7] [mL/min/kg]
CCOC(=O)c1ccc(-c2ccc([C@H](C)[C@H](N)C(=O)N3CC[C@H](F)C3)cc2)cc1 |  | 440 | > 100 | > 100 | 120 |  | 
C[C@@H](c1ccc(-c2ccc(F)cc2F)cc1)[C@H](N)C(=O)N1CC[C@H](F)C1 |  | 37 | > 100 | > 100 | 2500 |  | 
C[C@@H](c1ccc(-c2cccc(-c3c[nH]c(O)n3)c2)cc1)[C@H](N)C(=O)N1CC[C@H](F)C1 |  | 110 |  |  | 830 |  | 
C[C@@H](c1ccc(F)c(Cl)c1)[C@H](N)C(=O)N1CC[C@H](F)C1 |  | 2800 |  |  | 5200 |  | 
C[C@@H](c1ccc(F)cc1)[C@H](N)C(=O)N1CC[C@H](F)C1 |  |  | > 100 |  | 23000 |  | 
C[C@@H](c1ccc(-c2cccc(S(C)(=O)=O)c2)cc1)[C@H](N)C(=O)N1CC[C@H](F)C1 |  | 110 |  |  | 2900 |  | 
COc1ccccc1-c1ccc([C@H](C)[C@H](N)C(=O)N2CC[C@H](F)C2)cc1 |  | 110 | > 100 | > 100 | 3800 |  | 
C[C@@H](c1ccc(-c2ccccc2)c(F)c1)[C@H](N)C(=O)N1CC[C@H](F)C1 |  | 2000 | > 100 | > 100 | 48000 |  | 
C[C@@H](c1ccc(-c2cccc(S(N)(=O)=O)c2)cc1)[C@H](N)C(=O)N1CC[C@H](F)C1 |  | 140 | > 100 | > 100 | 3600 |  | 
C[C@@H](c1ccc(F)c(F)c1)[C@H](N)C(=O)N1CC[C@H](F)C1 |  | 1100 | > 100 |  | 11000 |  | 
COc1ccc([C@H](C)[C@H](N)C(=O)N2CC[C@H](F)C2)cc1 |  | 770 | > 100 | > 100 | 14000 |  | 
C[C@@H](c1ccc(-c2cccc(-c3noc(C4CC4)n3)c2)cc1)[C@H](N)C(=O)N1CC[C@H](F)C1 |  | 140 |  | > 100 | 96 |  | 
C[C@@H](c1ccc(S(C)(=O)=O)cc1)[C@H](N)C(=O)N1CC[C@H](F)C1 |  | 3600 | > 100 | > 100 | 36000 |  | 
C[C@@H](c1ccc(-c2ccccc2F)cc1)[C@H](N)C(=O)N1CC[C@H](F)C1 |  | 100 | > 100 | > 100 | 1100 |  | 
C[C@@H](c1ccc(Cl)cc1F)[C@H](N)C(=O)N1CC[C@H](F)C1 |  | 480 | > 100 | > 100 | 5600 |  | 
C[C@@H](c1ccc(-c2ccncc2)cc1)[C@H](N)C(=O)N1CC[C@H](F)C1 |  | 110 | > 100 | > 100 | 3100 |  | 
Cc1ccccc1-c1ccc([C@H](C)[C@H](N)C(=O)N2CC[C@H](F)C2)cc1 |  |  | > 100 | > 100 | 2500 |  | 
C[C@@H](c1ccc(-c2ccccc2C(F)(F)F)cc1)[C@H](N)C(=O)N1CC[C@H](F)C1 |  | 130 | > 100 | > 100 | 2500 |  | 
C[C@@H](c1ccc(C(=O)[n+]2ccc[nH]2)cc1)[C@H](N)C(=O)N1CC[C@H](F)C1 |  | 1700 |  | > 100 | 1500 |  | 
